Reference: the supplement of paper PMC4862054

How the values were obtained:
Conditions in all cases: incubation time: 72 h
CAL-120 = assay: normalised viability (% of control), CellTiter-Blue; higher = more viable cells (about 100 = DMSO control)
In short: (§1)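 Plates were quality-checked by Z'-factor and normalised to vehicle (100) and a positive kill control (0). The underlying assay incubated breast cancer cell lines for 72 h on 384-well plates with compound, then added 2.5 µl CellTiter-Blue for 2 h at 37 °C and read at 560/590 nm. The value is normalised viability at a single listed concentration of the series.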

HCC1143 [1] = assay: as above
In short: as §1

HCC1599 [2] = assay: as above
In short: as §1

MDA-MB-231 [3] = assay: as above
In short: as §1

MDA-MB-436 [4] = assay: as above
In short: as §1

MDA-MB-453 [5] = assay: as above
In short: as §1

MDA-MB-468 [6] = assay: as above
In short: as §1

SK-BR-3 = assay: as above
In short: as §1

BT-474 = assay: drug sensitivity score (DSS), CellTiter-Glo (DSS (AUC-based score)); higher = stronger drug effect (viability inhibition or cytotoxicity); extreme values may be limits of the assay
In short: (§2)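 Plates with 384 wells held compound at 5 concentrations in 10-fold steps over a 10,000-fold range specific to each compound. Breast cancer cell lines were added in 20 µl suspension and incubated 72 h, then read for CellTox Green and CellTiter-Glo signals, with each plate normalised to 0.1 % DMSO and a positive kill control. The drug sensitivity score is based on the area under the fitted dose-response curve.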

BT-549 = assay: as above
In short: as §2

CAL-148 = assay: as above
In short: as §2

CAL-85-1 = assay: as above
In short: as §2

DU-4475 = assay: as above
In short: as §2

HCC1143 [7] = assay: as above
In short: as §2

HCC1599 [8] = assay: as above
In short: as §2

HCC1937 = assay: as above
In short: as §2

HDQ-P1 = assay: as above
In short: as §2

Hs578T = assay: as above
In short: as §2

MCF-10A = assay: as above
In short: as §2

MDA-MB-231 [9] = assay: as above
In short: as §2

MDA-MB-436 [10] = assay: as above
In short: as §2

MDA-MB-453 [11] = assay: as above
In short: as §2

MDA-MB-468 [12] = assay: as above
In short: as §2

MFM-223 = assay: as above
In short: as §2

SMILES: Cc1cnc(NC(=O)Nc2cc(Br)c(C)cc2OC[C@@H]2CNCCO2)cn1
- normalised viability (CAL-120; 1 nM): 88.5%
- normalised viability (CAL-120; 100 nM): 96.4%
- normalised viability (CAL-120; 1000 nM): 90.1%
- normalised viability (HCC1143 [1]; 1 nM): 97.9%
- normalised viability (HCC1143 [1]; 100 nM): 90%
- normalised viability (HCC1143 [1]; 1000 nM): 79.3%
- normalised viability (HCC1599 [2]; 1 nM): 112%
- normalised viability (HCC1599 [2]; 100 nM): 95.7%
- normalised viability (HCC1599 [2]; 1000 nM): 65.7%
- normalised viability (MDA-MB-231 [3]; 1 nM): 106%
- normalised viability (MDA-MB-231 [3]; 100 nM): 103%
- normalised viability (MDA-MB-231 [3]; 1000 nM): 94%
- normalised viability (MDA-MB-436 [4]; 1 nM): 104%
- normalised viability (MDA-MB-436 [4]; 100 nM): 83.4%
- normalised viability (MDA-MB-436 [4]; 1000 nM): 67.8%
- normalised viability (MDA-MB-453 [5]; 0.3 nM): 109%
- normalised viability (MDA-MB-453 [5]; 3 nM): 111%
- normalised viability (MDA-MB-453 [5]; 10 nM): 105%
- normalised viability (MDA-MB-468 [6]; 1 nM): 106%
- normalised viability (MDA-MB-468 [6]; 100 nM): 110%
- normalised viability (MDA-MB-468 [6]; 1000 nM): 56.6%
- normalised viability (SK-BR-3; 1 nM): 98.9%
- normalised viability (SK-BR-3; 100 nM): 101%
- normalised viability (SK-BR-3; 1000 nM): 30.1%

SMILES: Cc1cnc(NC(=O)Nc2cc(Br)c(C)cc2OC[C@@H]2CNCCO2)cn1 [Rabusertib]
- drug sensitivity score (BT-474): 0
- drug sensitivity score (BT-549): 0
- drug sensitivity score (CAL-148): 0
- drug sensitivity score (CAL-85-1): 0.115
- drug sensitivity score (DU-4475): 0
- drug sensitivity score (HCC1143 [7]): 0
- drug sensitivity score (HCC1599 [8]): 1.93
- drug sensitivity score (HCC1937): 0
- drug sensitivity score (HDQ-P1): 0
- drug sensitivity score (Hs578T): 1.2
- drug sensitivity score (MCF-10A): 0
- drug sensitivity score (MDA-MB-231 [9]): 0
- drug sensitivity score (MDA-MB-436 [10]): 0
- drug sensitivity score (MDA-MB-453 [11]): 2.1
- drug sensitivity score (MDA-MB-468 [12]): 0
- drug sensitivity score (MFM-223): 0

SMILES: CC[C@H](C)C(=O)O[C@H]1C[C@H](O)C=C2C=C[C@H](C)[C@H](CC[C@@H](O)C[C@@H](O)CC(=O)O)[C@H]21 [Pravastatin]
- drug sensitivity score (BT-474): 3.69
- drug sensitivity score (BT-549): 2.77
- drug sensitivity score (CAL-148): 3.75
- drug sensitivity score (CAL-85-1): 1.96
- drug sensitivity score (DU-4475): 4.02
- drug sensitivity score (HCC1143 [7]): 2.94
- drug sensitivity score (HCC1599 [8]): 6.85
- drug sensitivity score (HCC1937): 3.68
- drug sensitivity score (HDQ-P1): 1.68
- drug sensitivity score (Hs578T): 0
- drug sensitivity score (MCF-10A): 0
- drug sensitivity score (MDA-MB-231 [9]): 0
- drug sensitivity score (MDA-MB-436 [10]): 26.2
- drug sensitivity score (MDA-MB-453 [11]): 0
- drug sensitivity score (MDA-MB-468 [12]): 3.34
- drug sensitivity score (MFM-223): 2.84

SMILES: O=C(/C=C/c1cccnc1)NCCCCC1CCN(C(=O)c2ccccc2)CC1 [Daporinad]
- drug sensitivity score (BT-474): 13.4
- drug sensitivity score (BT-549): 0
- drug sensitivity score (CAL-148): 6.26
- drug sensitivity score (CAL-85-1): 22
- drug sensitivity score (DU-4475): 25.2
- drug sensitivity score (HCC1143 [7]): 22.2
- drug sensitivity score (HCC1599 [8]): 29.4
- drug sensitivity score (HCC1937): 21.4
- drug sensitivity score (HDQ-P1): 18
- drug sensitivity score (Hs578T): 26.8
- drug sensitivity score (MCF-10A): 23.2
- drug sensitivity score (MDA-MB-231 [9]): 14.8
- drug sensitivity score (MDA-MB-436 [10]): 8.81
- drug sensitivity score (MDA-MB-453 [11]): 26.8
- drug sensitivity score (MDA-MB-468 [12]): 30
- drug sensitivity score (MFM-223): 31.4

SMILES: C=CC(=O)N1CCC[C@@H](n2nc(-c3ccc(Oc4ccccc4)cc3)c3c(N)ncnc32)C1 [Ibrutinib]
- drug sensitivity score (BT-474): 0
- drug sensitivity score (BT-549): 0
- drug sensitivity score (CAL-148): 0
- drug sensitivity score (CAL-85-1): 2.66
- drug sensitivity score (DU-4475): 0
- drug sensitivity score (HCC1143 [7]): 0
- drug sensitivity score (HCC1599 [8]): 0
- drug sensitivity score (HCC1937): 0
- drug sensitivity score (HDQ-P1): 3.29
- drug sensitivity score (Hs578T): 0
- drug sensitivity score (MCF-10A): 4.67
- drug sensitivity score (MDA-MB-231 [9]): 0
- drug sensitivity score (MDA-MB-436 [10]): 0
- drug sensitivity score (MDA-MB-453 [11]): 5.93
- drug sensitivity score (MDA-MB-468 [12]): 0.811
- drug sensitivity score (MFM-223): 0

SMILES: COc1cc2c(NC3CCN(C(C)C)CC3)nc(C3CCCCC3)nc2cc1OCCCN1CCCC1 [UNC0638]
- drug sensitivity score (BT-474): 6.49
- drug sensitivity score (BT-549): 6.76
- drug sensitivity score (CAL-148): 5.21
- drug sensitivity score (CAL-85-1): 5.07
- drug sensitivity score (DU-4475): 0.314
- drug sensitivity score (HCC1143 [7]): 3.85
- drug sensitivity score (HCC1599 [8]): 2.99
- drug sensitivity score (HCC1937): 5.15
- drug sensitivity score (HDQ-P1): 3.3
- drug sensitivity score (Hs578T): 0
- drug sensitivity score (MCF-10A): 7.1
- drug sensitivity score (MDA-MB-231 [9]): 6.74
- drug sensitivity score (MDA-MB-436 [10]): 6.5
- drug sensitivity score (MDA-MB-453 [11]): 7.02
- drug sensitivity score (MDA-MB-468 [12]): 8.02
- drug sensitivity score (MFM-223): 6.13

SMILES: CC[C@H](Nc1ncnc2[nH]cnc12)c1nc2cccc(F)c2c(=O)n1-c1ccccc1 [GS-1101]
- drug sensitivity score (BT-474): 2.65
- drug sensitivity score (BT-549): 2.49
- drug sensitivity score (CAL-148): 0
- drug sensitivity score (CAL-85-1): 0
- drug sensitivity score (DU-4475): 0
- drug sensitivity score (HCC1143 [7]): 0
- drug sensitivity score (HCC1599 [8]): 0
- drug sensitivity score (HCC1937): 0
- drug sensitivity score (HDQ-P1): 1.93
- drug sensitivity score (Hs578T): 0
- drug sensitivity score (MCF-10A): 0
- drug sensitivity score (MDA-MB-231 [9]): 1.82
- drug sensitivity score (MDA-MB-436 [10]): 3.18
- drug sensitivity score (MDA-MB-453 [11]): 0
- drug sensitivity score (MDA-MB-468 [12]): 2.6
- drug sensitivity score (MFM-223): 0

SMILES: NCCCNCCSP(=O)(O)O [Amifostine]
- normalised viability (CAL-120; 10 nM): 71.9%
- normalised viability (CAL-120; 1000 nM): 84.1%
- normalised viability (CAL-120; 10000 nM): 82.1%
- normalised viability (HCC1143 [1]; 10 nM): 79.2%
- normalised viability (HCC1143 [1]; 1000 nM): 84%
- normalised viability (HCC1143 [1]; 10000 nM): 75.2%
- normalised viability (HCC1599 [2]; 10 nM): 102%
- normalised viability (HCC1599 [2]; 1000 nM): 72.4%
- normalised viability (HCC1599 [2]; 10000 nM): 81.7%
- normalised viability (MDA-MB-231 [3]; 10 nM): 86.7%
- normalised viability (MDA-MB-231 [3]; 1000 nM): 101%
- normalised viability (MDA-MB-231 [3]; 10000 nM): 86.5%
- normalised viability (MDA-MB-436 [4]; 10 nM): 135%
- normalised viability (MDA-MB-436 [4]; 1000 nM): 91.8%
- normalised viability (MDA-MB-436 [4]; 10000 nM): 86.2%
- normalised viability (MDA-MB-453 [5]; 3 nM): 102%
- normalised viability (MDA-MB-453 [5]; 30 nM): 81%
- normalised viability (MDA-MB-453 [5]; 100 nM): 86.7%
- normalised viability (MDA-MB-468 [6]; 10 nM): 102%
- normalised viability (MDA-MB-468 [6]; 1000 nM): 93%
- normalised viability (MDA-MB-468 [6]; 10000 nM): 91.3%
- normalised viability (SK-BR-3; 10 nM): 81.9%
- normalised viability (SK-BR-3; 1000 nM): 92.6%
- normalised viability (SK-BR-3; 10000 nM): 93.3%

SMILES: CNC(=O)c1cc(Oc2ccc(NC(=O)Nc3cc(C(C)(C)C)nn3-c3ccc4ncccc4c3)c(F)c2)ccn1 [Rebastinib]
- drug sensitivity score (BT-474): 0.877
- drug sensitivity score (BT-549): 0
- drug sensitivity score (CAL-148): 0
- drug sensitivity score (CAL-85-1): 0
- drug sensitivity score (DU-4475): 0
- drug sensitivity score (HCC1143 [7]): 0
- drug sensitivity score (HCC1599 [8]): 0
- drug sensitivity score (HCC1937): 0
- drug sensitivity score (HDQ-P1): 0
- drug sensitivity score (Hs578T): 0
- drug sensitivity score (MCF-10A): 0
- drug sensitivity score (MDA-MB-231 [9]): 0
- drug sensitivity score (MDA-MB-436 [10]): 0
- drug sensitivity score (MDA-MB-453 [11]): 0
- drug sensitivity score (MDA-MB-468 [12]): 0
- drug sensitivity score (MFM-223): 6.56
